Values belong to the molecule of their own block, whether it stands above or below them.
How the values were obtained:
[1] = test system: Ryr2^R2474S/WT mice; assay: Telemetric electrocardiogram recordings during epinephrine arrhythmia provocation; type: in vivo
Source text: Ryr2^R2474S/WT mice were implanted with radio telemetry transmitters (Data Sciences International). Briefly, the transmitter (PhysioTel, ETA-F10 transmitter) was inserted in mice subcutaneously along the back under general anesthesia (5% inhaled isoflurane). Two electrocardiogram (ECG) electrodes were placed hypodermically in the region of the right shoulder (negative pole) and toward the lower left chest (positive pole) to approximate lead II of the Einthoven surface ECG. During the procedure, respiratory and cardiac rhythm, adequacy of anesthetic depth, muscle relaxation, body temperature, and analgesia were monitored to avoid anesthesia-related complications. Postoperative pain was considered during a 1-week post-implantation period, and carprofen (5 mg/kg, subcutaneously) was given. A minimum period of 2 weeks was allowed for recovery from the surgery. Animals were housed in individual stainless-steel cages for telemetry recordings. Environmental parameters were recorded continuously and maintained within a fixed range: room temperature at 15° C. to 21° C. and 45 to 65% relative humidity. The artificial day/night cycle was 12-hour light/12-hour dark with light on at 0700 hours. Drinking water was provided ad libitum. Solid diet ([…]) was given daily in the morning. ECG waveforms were continuously recorded at a sampling rate of 2000 Hz using a signal transmitter-receiver (RPC-1) connected to a data acquisition system (Ponemah system, Data Sciences International). Compound 1 (50 mg/kg per day) was given in drinking water for 2 weeks before ECG recordings. Mice were recorded for 1 hour at baseline and then given epinephrine injection (1 mg/kg, intraperitoneally) and recorded for another 2 hours. The animals used in the study were maintained and studied according to protocols approved by the Institutional Animal Care and Use Committee of Columbia University (reference no. AC-AABP1551).

[2] = biological target: T1, PKA phosphorylated RyR2-R2474S (Homo sapiens, UniProt Q92736, R2474S); assay: Cryo-EM analysis with normalized difference in RMSD (pairwise domain comparison)
T1 construct: Each fragment was subcloned into a full-length human RYR2 construct in pCMV5 vector; made in house; host or cells: HEK293 (RyR2-R2474S, transient); E. coli BL21(DE3) (GST-calstabin-2)
T1 sequence (Q92736 whole entry R2474S, the tested form may be a part): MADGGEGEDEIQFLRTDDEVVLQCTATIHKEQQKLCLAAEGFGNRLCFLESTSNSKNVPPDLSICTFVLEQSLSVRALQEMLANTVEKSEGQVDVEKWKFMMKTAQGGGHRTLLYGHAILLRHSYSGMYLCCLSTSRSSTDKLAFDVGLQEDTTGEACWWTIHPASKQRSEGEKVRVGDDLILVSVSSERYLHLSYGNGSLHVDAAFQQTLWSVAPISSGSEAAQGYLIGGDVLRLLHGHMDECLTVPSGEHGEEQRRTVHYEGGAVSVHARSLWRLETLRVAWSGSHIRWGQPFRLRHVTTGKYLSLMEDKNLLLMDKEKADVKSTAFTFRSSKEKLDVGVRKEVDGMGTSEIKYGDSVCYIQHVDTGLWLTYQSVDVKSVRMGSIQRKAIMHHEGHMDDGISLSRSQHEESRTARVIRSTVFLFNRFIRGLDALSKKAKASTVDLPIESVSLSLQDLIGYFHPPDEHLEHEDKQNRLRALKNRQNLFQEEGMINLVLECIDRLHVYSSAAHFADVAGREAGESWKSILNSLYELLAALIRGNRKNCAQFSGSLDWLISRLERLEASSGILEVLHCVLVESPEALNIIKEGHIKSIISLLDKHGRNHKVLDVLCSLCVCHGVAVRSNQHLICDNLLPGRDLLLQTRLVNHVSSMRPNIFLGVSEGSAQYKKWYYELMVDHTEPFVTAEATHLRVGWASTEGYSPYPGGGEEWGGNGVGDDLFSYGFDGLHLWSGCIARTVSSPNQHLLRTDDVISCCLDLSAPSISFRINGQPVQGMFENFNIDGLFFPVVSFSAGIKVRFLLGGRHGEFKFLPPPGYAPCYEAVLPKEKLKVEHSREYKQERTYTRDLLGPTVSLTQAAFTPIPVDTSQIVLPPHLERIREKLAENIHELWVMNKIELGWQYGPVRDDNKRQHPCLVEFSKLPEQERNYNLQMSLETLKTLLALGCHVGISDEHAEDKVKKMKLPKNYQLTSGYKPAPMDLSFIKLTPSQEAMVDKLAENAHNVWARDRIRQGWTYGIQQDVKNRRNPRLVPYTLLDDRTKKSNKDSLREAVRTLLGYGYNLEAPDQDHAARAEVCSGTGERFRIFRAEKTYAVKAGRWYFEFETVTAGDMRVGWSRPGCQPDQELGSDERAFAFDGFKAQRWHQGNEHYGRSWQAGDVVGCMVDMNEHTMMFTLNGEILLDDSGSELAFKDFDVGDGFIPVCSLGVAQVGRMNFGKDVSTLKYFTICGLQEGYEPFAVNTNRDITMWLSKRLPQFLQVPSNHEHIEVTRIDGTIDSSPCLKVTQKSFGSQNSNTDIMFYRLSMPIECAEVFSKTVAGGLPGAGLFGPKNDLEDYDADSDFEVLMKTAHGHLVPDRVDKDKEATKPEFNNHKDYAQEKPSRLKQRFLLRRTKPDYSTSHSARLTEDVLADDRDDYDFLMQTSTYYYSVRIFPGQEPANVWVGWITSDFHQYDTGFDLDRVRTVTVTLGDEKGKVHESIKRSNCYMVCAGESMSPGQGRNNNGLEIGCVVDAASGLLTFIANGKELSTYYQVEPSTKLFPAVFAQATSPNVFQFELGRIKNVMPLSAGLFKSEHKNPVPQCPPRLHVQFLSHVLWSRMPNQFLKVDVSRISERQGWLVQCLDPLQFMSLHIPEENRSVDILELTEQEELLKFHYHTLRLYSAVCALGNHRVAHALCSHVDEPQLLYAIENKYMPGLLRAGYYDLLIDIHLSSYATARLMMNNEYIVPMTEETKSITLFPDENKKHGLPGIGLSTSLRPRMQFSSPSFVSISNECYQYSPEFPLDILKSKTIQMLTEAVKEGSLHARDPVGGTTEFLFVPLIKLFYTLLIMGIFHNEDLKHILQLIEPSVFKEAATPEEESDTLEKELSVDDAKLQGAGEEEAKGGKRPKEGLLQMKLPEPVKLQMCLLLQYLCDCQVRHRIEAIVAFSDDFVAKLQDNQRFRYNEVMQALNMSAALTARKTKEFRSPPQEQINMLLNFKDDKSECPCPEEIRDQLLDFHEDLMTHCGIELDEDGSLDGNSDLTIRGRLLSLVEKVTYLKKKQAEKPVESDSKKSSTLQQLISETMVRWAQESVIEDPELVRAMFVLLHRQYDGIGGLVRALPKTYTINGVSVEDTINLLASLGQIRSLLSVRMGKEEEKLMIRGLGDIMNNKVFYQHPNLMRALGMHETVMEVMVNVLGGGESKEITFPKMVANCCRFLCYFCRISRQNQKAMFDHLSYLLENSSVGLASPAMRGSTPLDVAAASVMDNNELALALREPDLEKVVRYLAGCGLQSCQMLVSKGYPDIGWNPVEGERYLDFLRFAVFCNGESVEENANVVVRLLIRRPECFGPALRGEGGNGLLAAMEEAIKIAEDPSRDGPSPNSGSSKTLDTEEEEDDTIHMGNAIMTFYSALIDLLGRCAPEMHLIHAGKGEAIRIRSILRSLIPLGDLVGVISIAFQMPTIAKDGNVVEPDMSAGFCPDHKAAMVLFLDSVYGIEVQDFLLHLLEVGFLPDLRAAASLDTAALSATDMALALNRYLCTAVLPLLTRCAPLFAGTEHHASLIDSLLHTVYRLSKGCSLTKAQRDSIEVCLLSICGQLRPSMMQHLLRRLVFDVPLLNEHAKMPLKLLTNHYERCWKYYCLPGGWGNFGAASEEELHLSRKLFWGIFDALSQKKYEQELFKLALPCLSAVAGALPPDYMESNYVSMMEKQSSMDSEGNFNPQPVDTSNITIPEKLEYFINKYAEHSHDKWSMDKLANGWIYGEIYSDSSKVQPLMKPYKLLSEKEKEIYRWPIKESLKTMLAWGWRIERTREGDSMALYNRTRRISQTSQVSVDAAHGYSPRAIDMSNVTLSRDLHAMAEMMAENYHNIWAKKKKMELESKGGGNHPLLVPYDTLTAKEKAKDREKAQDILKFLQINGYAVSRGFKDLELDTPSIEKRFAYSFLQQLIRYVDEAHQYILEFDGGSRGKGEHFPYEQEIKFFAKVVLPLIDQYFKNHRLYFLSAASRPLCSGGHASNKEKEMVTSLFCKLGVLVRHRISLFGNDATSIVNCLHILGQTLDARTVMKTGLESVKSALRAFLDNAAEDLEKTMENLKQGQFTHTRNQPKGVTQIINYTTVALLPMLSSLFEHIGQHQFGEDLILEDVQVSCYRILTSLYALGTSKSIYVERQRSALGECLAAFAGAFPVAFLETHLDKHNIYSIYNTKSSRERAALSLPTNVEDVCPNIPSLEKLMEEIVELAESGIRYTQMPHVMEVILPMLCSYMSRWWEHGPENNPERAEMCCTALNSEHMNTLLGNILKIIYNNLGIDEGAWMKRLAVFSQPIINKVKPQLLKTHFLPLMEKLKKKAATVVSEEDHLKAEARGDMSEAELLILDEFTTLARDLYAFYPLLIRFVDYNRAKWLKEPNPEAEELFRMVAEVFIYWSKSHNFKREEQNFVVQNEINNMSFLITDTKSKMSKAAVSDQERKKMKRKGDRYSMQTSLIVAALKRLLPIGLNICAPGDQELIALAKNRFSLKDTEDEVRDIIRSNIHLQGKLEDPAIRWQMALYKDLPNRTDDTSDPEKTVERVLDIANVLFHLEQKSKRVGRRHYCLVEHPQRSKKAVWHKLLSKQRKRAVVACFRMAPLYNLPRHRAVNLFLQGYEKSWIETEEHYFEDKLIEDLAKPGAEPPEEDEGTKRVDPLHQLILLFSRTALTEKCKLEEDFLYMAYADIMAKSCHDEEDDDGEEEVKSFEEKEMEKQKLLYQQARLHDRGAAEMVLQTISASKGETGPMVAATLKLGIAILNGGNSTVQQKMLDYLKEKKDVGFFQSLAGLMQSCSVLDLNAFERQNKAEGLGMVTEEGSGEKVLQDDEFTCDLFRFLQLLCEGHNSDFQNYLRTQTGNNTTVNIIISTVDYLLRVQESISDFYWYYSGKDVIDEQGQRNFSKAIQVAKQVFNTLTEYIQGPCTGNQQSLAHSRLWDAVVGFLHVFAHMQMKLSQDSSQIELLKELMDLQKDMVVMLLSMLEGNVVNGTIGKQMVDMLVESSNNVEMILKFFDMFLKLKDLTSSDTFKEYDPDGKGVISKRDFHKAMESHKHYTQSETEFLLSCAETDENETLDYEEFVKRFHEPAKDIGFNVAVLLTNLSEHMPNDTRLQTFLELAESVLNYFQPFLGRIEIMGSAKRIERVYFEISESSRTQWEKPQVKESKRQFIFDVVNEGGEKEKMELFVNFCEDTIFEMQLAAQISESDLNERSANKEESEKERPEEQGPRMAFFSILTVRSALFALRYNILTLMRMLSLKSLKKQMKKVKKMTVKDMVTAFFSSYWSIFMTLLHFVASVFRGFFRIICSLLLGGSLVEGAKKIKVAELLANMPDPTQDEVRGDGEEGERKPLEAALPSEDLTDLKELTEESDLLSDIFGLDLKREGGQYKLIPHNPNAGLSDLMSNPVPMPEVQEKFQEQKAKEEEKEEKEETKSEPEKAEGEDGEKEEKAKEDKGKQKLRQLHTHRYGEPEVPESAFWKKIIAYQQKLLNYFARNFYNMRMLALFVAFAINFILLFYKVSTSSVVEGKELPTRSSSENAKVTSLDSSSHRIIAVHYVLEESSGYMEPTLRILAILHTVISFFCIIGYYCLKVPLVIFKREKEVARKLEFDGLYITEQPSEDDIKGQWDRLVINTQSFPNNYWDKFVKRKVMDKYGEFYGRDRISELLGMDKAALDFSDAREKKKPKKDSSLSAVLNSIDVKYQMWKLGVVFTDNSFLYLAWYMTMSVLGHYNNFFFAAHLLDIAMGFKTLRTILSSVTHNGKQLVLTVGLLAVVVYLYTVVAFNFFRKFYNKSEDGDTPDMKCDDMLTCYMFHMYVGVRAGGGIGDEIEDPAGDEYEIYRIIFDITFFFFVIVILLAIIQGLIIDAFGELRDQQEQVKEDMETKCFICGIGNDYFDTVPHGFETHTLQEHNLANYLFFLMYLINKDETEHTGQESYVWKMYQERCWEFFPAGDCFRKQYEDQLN
T1 sequence (P68106 whole entry partner, the tested form may be a part): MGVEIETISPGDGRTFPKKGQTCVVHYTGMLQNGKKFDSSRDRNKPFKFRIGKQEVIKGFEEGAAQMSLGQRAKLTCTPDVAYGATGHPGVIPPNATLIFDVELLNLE
Procedure: Each of the final samples (3 μl each) prepared in EXAMPLE 5 was applied to UltrAuFoil holey gold grids (Quantifoil R 0.6/1.0, Au 300) previously cleaned with easiGlow (PELCO). Grids were blotted with ashless filter paper (Whatman) using blot force 10 and blot time 8 s before vitrification by plunge-freezing into liquid ethane chilled with liquid nitrogen using Vitrobot Mark IV (Thermo Fisher Scientific) operated at 4° C. with 100% relative humidity.
Prepared grids were screened in-house on a Glacios Cryo-TEM (Thermo Fisher Scientific) microscope with a 200-kV x-FEG source and a Falcon 3EC direct electron detector (Thermo Fisher Scientific). Microscope operations and data collection were carried out using EPU software (Thermo Fisher Scientific). High-resolution data collection was performed at Columbia University on a Titan Krios 300-kV (Thermo Fisher Scientific) microscope equipped with an energy filter (slit width 20 eV) and a K3 direct electron detector (Gatan). Data were collected using Leginon and at a nominal magnification of ×105,000 in electron counting mode, corresponding to a pixel size of 0.83 Å. The electron dose rate was set to 16 e^−/pixel per second with 2.5-s exposures for a total dose of 50 to 60 e/A2.
Cryo-EM data processing was performed in cryoSPARC with image stacks aligned using Patch motion, defocus value estimation by Patch CTF estimation. Particle picking was performed using the template picker with templates created from preexisting cryo-EM maps. Particles were subjected to 2D classification in cryoSPARC with 100 classes. Particles from the highest-resolution classes were pooled for ab initio 3D reconstruction with a single class followed by homogeneous refinement with C4 symmetry imposed. 3D variability and further clustering were performed using a mask comprising the TM domain to separate those particles in the closed and open states followed by heterogeneous refinement with four classes to further select the best particles. C4 symmetry expansion was performed before local refinements. The masks used were TaF+TM+CTD domains (residues 4131 to 4967), calstabin-2+NTD+SPRY domains (residues 1 to 1646), JSol+CSol domains (residues 1700 to 2476, 3590 to 4130), and BSol domain (residues 2400 to 3344). Only the TaF+TM+CTD mask used C4 symmetry. Smaller masks, for a second round of 3D variability analysis, clustering, and local refinement, were RY1&2 (residues 862 to 1076), RY3&4 (residues 2685 to 2909), and BSol2 (residues 3042 to 3344). Local refinements used a dynamical mask with a far distance of 10, 50, and 150 Å for the initial masks, small masks, and expanded RY3&4 mask for comparing the effect of RY3&4 stabilization, respectively. The resulting maps were combined in ChimeraX to generate a composite map before calibration of the pixel size using correlation coefficients with a map generated from the crystal structure of the NTD of RyR2 (PDB ID: 4JKQ). The pixel size was altered by 0.001 Å per step, up to 20 steps in each direction.
An initial model of RYR2 was generated with Phenix tool sculptor from a 2.45-Å structure of RyR1 (PDB ID: 7TZC). Truncated residues were manually corrected to obtain the full side chains. Only domains RY1&2 and RY3&4, which show weak cryo-EM density and confidence in structure, were based on crystallographic structures. The initial model of RyR2 RY1&2 domain was generated with Phenix tool sculptor from the RY1&2 domain of RyR3 with ATP (PDB ID: […]). The model of RyR2 RY3&4 domain was obtained as is (PDB ID: 4ETV). Calstabin-2 and CaM models were obtained as is (PDB ID: 6JI8). Model building was performed in Coot and refined with Phenix tool RealSpaceRefine.
This analysis determined the conformation of a certain query domain from a model X relative to reference closed and open states of RyR2. To this end, the RMSD of Ca of the query domain was measured between model X and the closed state (RMSDX-closed), and between model X and the open state (RMSDX-open). […]

[3] = biological target: T2, RyR2-R2474S channels (Mus musculus, UniProt E9Q401, R2473S); assay: SR Ca^2+ leak assay in heart microsomes (Fluo-4); type: biochemical; details: heart microsomes from mice treated with epinephrine and Compound 1 in vivo
T2 construct: Cardiac muscle SR microsomes were prepared by homogenizing heart samples on ice; from tissue; host or cells: heart of Ryr2 R2474S/WT mice (SR microsomes)
Procedure: Ca^2+ leak was measured in microsomes from heart lysates isolated from control Ryr^2R2474S/WT mice, Ryr^2R2474S/WT mice treated with epinephrine, and Ryr^2R2474S/WT mice treated with epinephrine and Compound 1 in EXAMPLE 8. […] Cardiac muscle SR microsomes were prepared by homogenizing heart samples on ice using a Teflon glass homogenizer (50 times) with 2 volumes of 20 mM tris-maleate (pH 7.4), 1 mM EDTA, 1 mM DTT, and protease inhibitors (Roche). Homogenate was then spun by centrifuge at 4000 g for 15 min at 4° C., and the resultant supernatant was spun by centrifuge at 50,000 g for 45 min at 4° C. Pellets were resuspended in lysis buffer containing 300 mM sucrose. Microsomes ([…]) were diluted into a buffer (pH 7.2) containing 8 mM K-phosphocreatine, and creatine kinase (2 U/ml), mixed with 3 μM Fluo-4 and added to multiple wells of a 96-well plate. Ca^2+ loading of the microsomes was initiated by adding 1 mM ATP. After Ca^2+ uptake (50 s), 3 μM thapsigargin was added to inhibit the Ca^2+ reuptake by SERCA. SR Ca^2+ leak was measured by the increase in intensity of the Fluo-4 signal (measured in a Tecan fluorescence plate reader). Ca^2+ leak was quantified as the difference between the average Fluo-4 signal before and after addition of thapsigargin. Graphs were plotted with GraphPad Prism software.

[4] = biological target: T3, recombinant RyR2 (Homo sapiens, UniProt Q92736); assay: Single channel recordings in planar lipid bilayers (open probability); type: biochemical; details: xanthine 10 μM; Ca2+ 150 nM
T3 construct: expressed in transfected cells; host or cells: HEK293
T3 sequence (Q92736 whole entry): as the sequence (Q92736 whole entry R2474S, the tested form may be a part) above, with S2474R counted along it
Procedure: To confirm the functional role of xanthine in RyR2, single-channel experiments were performed. ER vesicles from HEK293 cells expressing RyR2 were prepared by homogenizing cell pellets on ice using a Teflon glass homogenizer with two volumes of solution containing 20 mM tris-maleate (pH 7.4), 1 mM EDTA, 1 mM DTT, and protease inhibitors (Roche). Homogenate was then spun by centrifuge at 4000 g for 15 min at 4° C., and the resulting supernatant was spun by centrifuge at 40,000 g for 30 min at 4° C. The final pellet, containing the ER fractions, was resuspended and aliquoted in 250 mM sucrose, 10 mM Mops (pH 7.4), 1 mM EDTA, 1 mM DTT, and protease inhibitors. Samples were frozen in liquid nitrogen and stored at −80° C.
ER vesicles were fused to planar lipid bilayers formed by painting a lipid mixture of phosphatidylethanolamine and PC (Avanti Polar Lipids) in a 5:3 ratio in decane across a […] in polysulfonate cups (Warner Instruments) separating two chambers. […] The concentration of free Ca^2+ in the cis chamber was calculated as previously described. […] Single-channel currents were recorded at 0 mV using Bilayer Clamp BC-525D (Warner Instruments), filtered at 1 kHz using Low-Pass Bessel Filter 8 Pole (Warner Instruments), and digitized at 4 kHz. […] The recordings were analyzed using Clampfit 10.1 (Molecular Devices) and GraphPad Prism software.

[5] = 50 mg/kg per day in drinking water for 2 weeks, epinephrine 1 mg/kg i.p.
[6] = P-RyR2-R2474S + Cpd1 vs closed/open PKA RyR2, 0 = closed state, 1 = open state

SMILES: COc1ccc2c(c1)CN(Cc1ccc(C(=O)O)cc1)CCS2 [Compound 1]
- frequency of ventricular tachycardia [1, 5]: reduced the frequency of ventricular tachycardia
- sudden cardiac death (SCD) [1, 5]: prevented sudden cardiac death
- sustained ventricular tachycardia (sVT) ([1]; 50 mg/kg/day in drinking water, epinephrine 1 mg/kg): prevented sVT
- effect on the primed state of PKA-phosphorylated RyR2-R2474S (cryo-EM structure comparison) ([2]; 10 mM ATP, 150 nM free Ca2+, 500 μM xanthine): partially reversed the primed state
- Normalized difference in RMSD, BSol [2, 6]: 0.32
- Normalized difference in RMSD, BSol2 [2, 6]: 0.40
- Normalized difference in RMSD, NTD [2, 6]: 0.42
- Normalized difference in RMSD, SPRY [2, 6]: 0.41
- reduction toward the closed state in RMSD analysis compared to primed PKA-phosphorylated RyR2-R2474S ([2]; in some domains): more than 50%
- RMSD Cα BSol, P-RyR2-R2474S + Cpd1 (PDB:7UA1) vs P-RyR2-C (PDB:7U9Q) ([2]; vs closed PKA RyR2): 1.61 ± Å
- RMSD Cα NTD, P-RyR2-R2474S + Cpd1 (PDB:7UA1) vs P-RyR2-C (PDB:7U9Q) ([2]; vs closed PKA RyR2): 1.20 ± Å
- RMSD Cα SPRY, P-RyR2-R2474S + Cpd1 (PDB:7UA1) vs P-RyR2-C (PDB:7U9Q) ([2]; vs closed PKA RyR2): 0.88 ± Å
- RMSD Cα BSol2, P-RyR2-R2474S + Cpd1 (PDB:7UA1) vs P-RyR2-C (PDB:7U9Q) ([2]; vs closed PKA RyR2, 10 mM NaATP, 500 μM xanthine, 150 nM free Ca2+): 3.08 ± Å
- RMSD Cα CSol, P-RyR2-R2474S + Cpd1 (PDB:7UA1) vs P-RyR2-C (PDB:7U9Q) ([2]; vs closed PKA RyR2, aligned control domain, used as error): 0.53 Å
- RMSD Cα BSol2, P-RyR2-R2474S + Cpd1 (PDB:7UA1) vs P-RyR2-O (PDB:7U9R) ([2]; vs open PKA RyR2): 4.63 ± Å
- RMSD Cα BSol, P-RyR2-R2474S + Cpd1 (PDB:7UA1) vs P-RyR2-O (PDB:7U9R) ([2]; vs open PKA RyR2): 3.36 ± Å
- RMSD Cα NTD, P-RyR2-R2474S + Cpd1 (PDB:7UA1) vs P-RyR2-O (PDB:7U9R) ([2]; vs open PKA RyR2): 1.66 ± Å
- RMSD Cα SPRY, P-RyR2-R2474S + Cpd1 (PDB:7UA1) vs P-RyR2-O (PDB:7U9R) ([2]; vs open PKA RyR2): 1.25 ± Å
- RMSD Cα CSol, P-RyR2-R2474S + Cpd1 (PDB:7UA1) vs P-RyR2-O (PDB:7U9R) ([2]; vs open PKA RyR2, aligned control domain, used as error): 0.41 Å
- SR Ca^2+ leak (increase in Fluo-4 signal after thapsigargin) [3]: prevented SR Ca^2+ leak

- increase in the open probability of RyR2 [4]: ~25 fold
SMILES: O=c1[nH]c(=O)c2[nH]cnc2[nH]1 [xanthine]

From patent US20230368862A1, “BINDING SITE IN TYPE 2 RYANODINE RECEPTOR” (The Trustees of Columbia University in the City of New York, priority 2021, published 2023)
